Test results: ChEMBL document CHEMBL3751693, “Synthesis, antimicrobial evaluation and molecular modeling of 5-hydroxyisoquinolinium salt series; the effect of the hydroxyl moiety” (Bioorg Med Chem, 2016)

Experiments:
Trichosporon asahii [1] = assay: Antimicrobial activity against Trichosporon asahii 1188 after 48 hrs by spectrophotometry; format: functional; conditions: Trichosporon asahii, 1188, 48 h
Aspergillus fumigatus [2] = assay: Antimicrobial activity against Aspergillus fumigatus 231 after 24 hrs by spectrophotometry; format: functional; conditions: Aspergillus fumigatus, 231, 24 h
Klebsiella pneumoniae [3] = assay: Antimicrobial activity against clinical isolate Klebsiella pneumoniae D 1175008 after 24 hrs; format: functional; conditions: D 1175008, 24 h
Klebsiella pneumoniae [4] = assay: Antimicrobial activity against clinical isolate ESBL-Klebsiella pneumoniae J 1436808 after 48 hrs; format: functional; conditions: J 1436808, 48 h
Klebsiella pneumoniae [5] = assay: Antimicrobial activity against clinical isolate Klebsiella pneumoniae D 1175008 after 48 hrs; format: functional; conditions: D 1175008, 48 h
[6] = tested on: Staphylococcus epidermidis; assay: Antimicrobial activity against clinical isolate Staphylococcus epidermidis H 696608 after 24 hrs; format: functional; conditions: H 696608, 24 h
Klebsiella pneumoniae [7] = assay: Antimicrobial activity against clinical isolate ESBL-Klebsiella pneumoniae J 1436808 after 24 hrs; format: functional; conditions: J 1436808, 24 h
Aspergillus fumigatus [8] = assay: Antimicrobial activity against Aspergillus fumigatus 231 after 48 hrs by spectrophotometry; format: functional; conditions: Aspergillus fumigatus, 231, 48 h
Escherichia coli [9] = assay: Antimicrobial activity against clinical isolate Escherichia coli CCM 4517 after 24 hrs; format: functional; conditions: CCM 4517, 24 h
Candida tropicalis [10] = assay: Antimicrobial activity against Candida tropicalis 156 after 24 hrs by spectrophotometry; format: functional; conditions: Candida tropicalis, 156, 24 h
Pichia kudriavzevii [11] = assay: Antimicrobial activity against Candida krusei E28 after 24 hrs by spectrophotometry; format: functional; conditions: E28, 24 h
Candida albicans [12] = assay: Antimicrobial activity against Candida albicans ATCC 44859 after 48 hrs by spectrophotometry; format: functional; conditions: ATCC 44859, 48 h
Pseudomonas aeruginosa [13] = assay: Antimicrobial activity against clinical isolate Pseudomonas aeruginosa CCM 1961 after 72 hrs; format: functional; conditions: CCM 1961, 72 h
[14] = tested on: Staphylococcus epidermidis; assay: Antimicrobial activity against clinical isolate Staphylococcus epidermidis H 696608 after 48 hrs; format: functional; conditions: H 696608, 48 h
Nakaseomyces glabratus [15] = assay: Antimicrobial activity against Candida glabrata 20/I after 24 hrs by spectrophotometry; format: functional
Lichtheimia corymbifera [16] = assay: Antimicrobial activity against Absidia corymbifera 272 after 24 hrs by spectrophotometry; format: functional; conditions: Lichtheimia corymbifera, 272, 24 h
[17] = tested on: Trichophyton mentagrophytes; assay: Antimicrobial activity against Trichophyton mentagrophytes 445 after 120 hrs by spectrophotometry; format: functional; conditions: Trichophyton mentagrophytes, 445, 120 h
[18] = tested on: Trichophyton mentagrophytes; assay: Antimicrobial activity against Trichophyton mentagrophytes 445 after 72 hrs by spectrophotometry; format: functional; conditions: Trichophyton mentagrophytes, 445, 72 h
Escherichia coli [19] = assay: Antimicrobial activity against clinical isolate Escherichia coli CCM 4517 after 48 hrs; format: functional; conditions: CCM 4517, 48 h
Lichtheimia corymbifera [20] = assay: Antimicrobial activity against Absidia corymbifera 272 after 48 hrs by spectrophotometry; format: functional; conditions: Lichtheimia corymbifera, 272, 48 h
[21] = Cytotoxicity against CHOK1 cells after 24 hrs by MTT assay; format: cell-based; conditions: Cricetulus griseus, CHO-K1, 24 h
Staphylococcus aureus [22] = assay: Antimicrobial activity against clinical isolate methicillin-resistant Staphylococcus aureus H 599608 after 24 hrs; format: functional; conditions: H 599608, 24 h
Staphylococcus aureus [23] = assay: Antimicrobial activity against clinical isolate Staphylococcus aureus CCM 451608 after 24 hrs; format: functional; conditions: CCM 451608, 24 h
Nakaseomyces glabratus [24] = assay: Antimicrobial activity against Candida glabrata 20/I after 48 hrs by spectrophotometry; format: functional
Staphylococcus aureus [25] = assay: Antimicrobial activity against clinical isolate methicillin-resistant Staphylococcus aureus H 599608 after 48 hrs; format: functional; conditions: H 599608, 48 h
Enterococcus sp. [26] = assay: Antimicrobial activity against clinical isolate Enterococcus sp. J 1436508 after 24 hrs; format: functional; conditions: J 1436508, 24 h
Pseudomonas aeruginosa [27] = assay: Antimicrobial activity against clinical isolate Pseudomonas aeruginosa CCM 1961 after 120 hrs; format: functional; conditions: CCM 1961, 120 h
Enterococcus sp. [28] = assay: Antimicrobial activity against clinical isolate Enterococcus sp. J 1436508 after 48 hrs; format: functional; conditions: J 1436508, 48 h
Candida albicans [29] = assay: Antimicrobial activity against Candida albicans ATCC 44859 after 24 hrs by spectrophotometry; format: functional; conditions: ATCC 44859, 24 h
Staphylococcus aureus [30] = assay: Antimicrobial activity against clinical isolate Staphylococcus aureus CCM 451608 after 48 hrs; format: functional; conditions: CCM 451608, 48 h
Pichia kudriavzevii [31] = assay: Antimicrobial activity against Candida krusei E28 after 48 hrs by spectrophotometry; format: functional; conditions: E28, 48 h
Candida tropicalis [32] = assay: Antimicrobial activity against Candida tropicalis 156 after 48 hrs by spectrophotometry; format: functional; conditions: Candida tropicalis, 156, 48 h
Trichosporon asahii [33] = assay: Antimicrobial activity against Trichosporon asahii 1188 after 24 hrs by spectrophotometry; format: functional; conditions: Trichosporon asahii, 1188, 24 h

## CCCCCCCCCCCCCC[n+]1ccc2ccccc2c1
Trichosporon asahii [1]
  MFC: 3.9 µM
  MIC: 3.9 µM
Aspergillus fumigatus [2]
  MIC: 7.8 µM
Klebsiella pneumoniae [3]
  MIC: 3.9 µM
Klebsiella pneumoniae [4]
  MBC: 31 µM
  MIC: 31 µM
Klebsiella pneumoniae [5]
  MBC: 3.9 µM
  MIC: 3.9 µM
[6]
  MIC: 0.5 µM
Klebsiella pneumoniae [7]
  MIC: 31 µM
Aspergillus fumigatus [8]
  MFC: 7.8 µM
  MIC: 7.8 µM
Escherichia coli [9]
  MIC: 2 µM
Candida tropicalis [10]
  MIC: 0.5 µM
Pichia kudriavzevii [11]
  MIC: 0.5 µM
Candida albicans [12]
  MFC: 1 µM
  MIC: 0.5 µM
Pseudomonas aeruginosa [13]
  MIC: 63 µM
[14]
  MBC: 1 µM
  MIC: 0.5 µM
Nakaseomyces glabratus [15]
  MIC: 0.5 µM
Lichtheimia corymbifera [16]
  MIC: 31 µM
[17]
  MFC: 16 µM
  MIC: 3.9 µM
[18]
  MIC: 3.9 µM
Escherichia coli [19]
  MBC: 3.9 µM
  MIC: 2 µM
Lichtheimia corymbifera [20]
  MFC: 250 µM
  MIC: 31 µM
[21]
  IC50: 9 µM
Staphylococcus aureus [22]
  MIC: 0.5 µM
Staphylococcus aureus [23]
  MIC: 0.5 µM
Nakaseomyces glabratus [24]
  MFC: 3.9 µM
  MIC: 0.5 µM
Staphylococcus aureus [25]
  MBC: 1 µM
  MIC: 0.5 µM
Enterococcus sp. [26]
  MIC: 0.5 µM
Pseudomonas aeruginosa [27]
  MBC: 63 µM
  MIC: 63 µM
Enterococcus sp. [28]
  MBC: 3.9 µM
  MIC: 0.5 µM
Candida albicans [29]
  MIC: 0.5 µM
Staphylococcus aureus [30]
  MBC: 1 µM
  MIC: 0.5 µM
Pichia kudriavzevii [31]
  MFC: 1 µM
  MIC: 0.5 µM
Candida tropicalis [32]
  MFC: 1 µM
  MIC: 0.5 µM
Trichosporon asahii [33]
  MIC: 3.9 µM
